{
  "source": "patent US11084795B2",
  "about": "“CFTR regulators and methods of use thereof” (The Regents of the University of California, priority 2015, dated 2021)",
  "key": {"[1]": {"test": "In vitro metabolic stability in mouse liver microsomes", "format": "in vitro ADME", "conditions": "mouse hepatic microsomes, NADPH", "procedure": "CFTRact-J027 (5 μM) was incubated for specified times at 37° C. with mouse liver microsomes (1 mg protein/ml; Sigma-Aldrich) in potassium phosphate buffer (100 mM) containing 1 mM NADPH, as described. The mixture was then chilled on ice, and 0.5 ml of ice-cold ethyl acetate was added. Samples were centrifuged for 15 min at 3000 rpm, the supernatant evaporated to dryness, and the residue was dissolved in 100 μL mobile phase (acetonitrile:water, 3:1) for LC/MS and assayed as described above.\nIn vitro metabolic stability. CFTRact-J027 (5 μM) was incubated for specified times at 37° C. with mouse liver microsomes (1 mg protein/ml; Sigma-Aldrich) in potassium phosphate buffer (100 mM) containing 1 mM NADPH, as described. The mixture was then chilled on ice, and 0.5 ml of ice-cold ethyl acetate was added. Samples were centrifuged for 15 min at 3000 rpm, the supernatant evaporated to dryness, and the residue was dissolved in 100 μL mobile phase (acetonitrile:water, 3:1) for LC/MS and assayed as described above.\nIn vitro metabolic stability. Test compound (at 5 μM) was incubated for specified times at 37° C. with mouse liver microsomes (1 mg protein/ml; Sigma-Aldrich, St. Louis, Mo.) in potassium phosphate buffer containing 1 mM NADPH, as described. Following ethyl acetate extraction, non-metabolized parent compound was assayed by LC/MS."}, "cellular cAMP": {"test_system": "cellular cAMP", "test": "GloSensor cAMP assay in FRT cells", "format": "cell-based, rat", "conditions": "1c at 10 μM", "procedure": "Intracellular cAMP activity was measured using a GloSensor luminescence assay (Promega Corp., Madison, Wisconson, USA). FRT null cells were stably transfected with the pGloSensor cAMP plasmid and plated onto white 96-well microplates and grown to confluence. Cells were washed three times with PBS and incubated with 5 μM CFTRact-J027 for 10 min in the absence and presence of 100 nM forskolin. cAMP was assayed according to the manufacturer's instructions.\nIntracellular cAMP activity was measured using a GloSensor luminescence assay (Promega Corp., Madison, Wis., USA). FRT cells stably transfected with the pGloSensor cAMP plasmid (Promega Corp.) were cultured in white 96-well microplates (Corning Costar) overnight. Cells were then washed three times with PBS and incubated with 5 μM test compound for 10 min in the absence and presence of 100 nM forskolin.\ncAMP assay. Intracellular cAMP activity was measured using a GloSensor luminescence assay (Promega Corp., Madison, Wisconson, USA). FRT null cells were stably transfected with the pGloSensor cAMP plasmid and plated onto white 96-well microplates and grown to confluence. […]\ncAMP and cytotoxicity assays. Intracellular cAMP activity was measured using a GloSensor luminescence assay (Promega Corp., Madison, Wis., USA). […]"}, "human wildtype CFTR [2]": {"molecular_target": "T1, human wildtype CFTR (Homo sapiens, UniProt P13569)", "T1 sequence (P13569 whole entry)": "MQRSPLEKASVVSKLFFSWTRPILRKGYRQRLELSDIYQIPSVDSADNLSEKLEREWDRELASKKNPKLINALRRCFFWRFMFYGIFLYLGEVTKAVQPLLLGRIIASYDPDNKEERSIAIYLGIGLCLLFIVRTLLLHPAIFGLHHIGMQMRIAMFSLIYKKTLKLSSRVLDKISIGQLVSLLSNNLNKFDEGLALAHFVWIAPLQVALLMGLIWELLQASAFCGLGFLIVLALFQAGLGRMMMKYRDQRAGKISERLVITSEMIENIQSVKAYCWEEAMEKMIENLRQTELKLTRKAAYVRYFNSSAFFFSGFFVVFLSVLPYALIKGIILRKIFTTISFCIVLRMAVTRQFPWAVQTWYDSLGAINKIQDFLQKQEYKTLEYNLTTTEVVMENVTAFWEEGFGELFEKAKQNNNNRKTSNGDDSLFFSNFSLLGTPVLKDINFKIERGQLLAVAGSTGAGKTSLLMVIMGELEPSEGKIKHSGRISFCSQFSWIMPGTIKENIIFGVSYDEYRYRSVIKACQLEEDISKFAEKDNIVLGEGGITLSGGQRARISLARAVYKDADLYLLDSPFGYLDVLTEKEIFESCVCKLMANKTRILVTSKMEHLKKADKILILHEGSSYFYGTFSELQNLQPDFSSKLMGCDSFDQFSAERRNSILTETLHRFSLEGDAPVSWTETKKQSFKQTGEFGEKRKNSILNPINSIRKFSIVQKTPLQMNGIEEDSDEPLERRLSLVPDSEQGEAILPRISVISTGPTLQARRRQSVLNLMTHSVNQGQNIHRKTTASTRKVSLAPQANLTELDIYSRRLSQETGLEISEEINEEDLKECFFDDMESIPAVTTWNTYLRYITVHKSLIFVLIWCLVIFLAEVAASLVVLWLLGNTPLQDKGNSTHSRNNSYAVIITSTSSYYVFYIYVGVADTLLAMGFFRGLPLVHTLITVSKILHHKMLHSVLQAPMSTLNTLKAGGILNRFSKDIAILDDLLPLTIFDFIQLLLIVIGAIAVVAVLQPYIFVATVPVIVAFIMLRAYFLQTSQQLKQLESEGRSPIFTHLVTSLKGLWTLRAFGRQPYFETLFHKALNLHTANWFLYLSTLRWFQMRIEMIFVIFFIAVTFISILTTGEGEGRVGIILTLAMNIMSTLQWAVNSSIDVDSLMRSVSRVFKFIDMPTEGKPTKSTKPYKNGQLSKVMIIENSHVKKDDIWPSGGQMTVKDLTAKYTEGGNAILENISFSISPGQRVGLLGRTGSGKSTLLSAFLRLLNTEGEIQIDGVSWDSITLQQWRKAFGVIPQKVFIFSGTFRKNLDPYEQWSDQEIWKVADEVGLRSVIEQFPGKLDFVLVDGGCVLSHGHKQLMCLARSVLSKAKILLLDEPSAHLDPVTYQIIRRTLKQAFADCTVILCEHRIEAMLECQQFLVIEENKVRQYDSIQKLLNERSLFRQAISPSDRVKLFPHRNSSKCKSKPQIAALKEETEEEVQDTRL", "test": "Fluorescence plate reader assay of iodide influx in FRT cells co-expressing CFTR and YFP halide sensor"}, "loperamide-treated mice": {"test_system": "loperamide-treated mice", "test": "Loperamide-induced mouse model of constipation", "conditions": "1c orally 1 h prior to loperamide, 3-h stool"}, "cytoplasmic calcium": {"test_system": "cytoplasmic calcium", "test": "Cytoplasmic calcium (Fluo-4) in FRT cells", "format": "cell-based, rat", "conditions": "1c at 10 μM; ATP as calcium agonist", "procedure": "FIGS. 23A-23D. In vitro characterization of compound 1c. FIG. 23A. Cellular cAMP in FRT cells in response to incubation for 10 min with […] 1c without or with 90 nM forskolin (fsk). Positive controls included fsk (100 nM and 20 pM) and fsk+IBMX (20 pM+100 pM) (mean±S.E.M., n=4). FIG. 23B. Cytoplasmic calcium measured by Fluo-4 fluorescence. FRT cells were pretreated for 5 min with 10 pM 1c (or control), with 100 pM ATP added as a calcium agonist as indicated. FIG. 23C. […] FIG. 23D."}, "TMEM16A": {"test_system": "TMEM16A", "test": "TMEM16A activity in FRT cells expressing YFP and TMEM16A", "format": "cell-based", "conditions": "1c at 10 μM"}, "human wildtype CFTR [3]": {"molecular_target": "T1, human wildtype CFTR", "test": "Short-circuit current (Isc) in FRT cells expressing human wild-type CFTR", "conditions": "read-out: EC50 for CFTR activation; FRT cells, wild-type CFTR, short-circuit current"}, "[4]": {"test_system": "calcium-activated chloride channels in HT-29 cells", "test": "CaCC activity in HT-29 cells expressing YFP", "format": "cell-based", "conditions": "1c at 10 μM"}},
  "note": "pEC50: −log10 of the molar value. Entries after “also recorded” stand apart in the source; their conditions may differ.",
  "data": [
    {"smiles": "O=c1c(-c2cccc([N+](=O)[O-])c2)nc2ccccc2n1Cc1ccccc1", "note": "[Compound 1c, 1-Benzyl-3-(3-nitrophenyl)quinoxalin-2(1H)-one]", "values": [
      {"measurement": "compound metabolized at 60 min", "setting": "[1]", "result": "< 40", "unit": "%"},
      {"measurement": "effect on cellular cAMP level", "setting": "cellular cAMP", "result": "did not affect the cellular cAMP level"},
      {"measurement": "increased potency compared to 4", "setting": "human wildtype CFTR [2]; plate reader assay", "result": "~10", "unit": "fold"},
      {"measurement": "pEC50", "setting": "human wildtype CFTR [2]; read-out: EC50, variation in the 3-aryl ring, plate reader assay", "result": 8.05},
      {"measurement": "pEC50", "setting": "human wildtype CFTR [2]; synthesized compounds, full dose-response study, 125 nM forskolin", "result": 8.05},
      {"measurement": "stool weight, pellet number and hydration", "setting": "loperamide-treated mice", "result": "fully normalized stool weight, pellet number and hydration"},
      {"measurement": "cytoplasmic calcium", "setting": "cytoplasmic calcium", "result": "nor did it elevate cytoplasmic calcium or inhibit the ATP-stimulated elevation in cytoplasmic calcium"},
      {"measurement": "activation or inhibition of TMEM16A", "setting": "TMEM16A", "result": "no activation (iodide addition) or inhibition (iodide+ATP addition); also recorded: neither inhibited nor activated"},
      {"measurement": "pEC50", "setting": "human wildtype CFTR [3]", "result": 7.68},
      {"measurement": "activation or inhibition of calcium-activated chloride channels in HT-29 cells", "setting": "[4]", "result": "no activation (iodide addition) or inhibition (iodide+ATP addition); also recorded: neither inhibited nor activated"}
    ]}
  ]
}
